# Patent US8476463B2 (BASF SE, priority 2008, dated 2013)
# Assay: Temperature-dependent solubility (saturation concentration) of fumaric acid in di-n-butyl phthalate absorbent
# Format: physicochemical
# Text: The analysis can be effected, for example, by means of calibrated gas chromatography. For calibration, preference is given to using an internal standard, for example diethylene glycol dimethyl ether. Before the gas chromatography analysis, the sample is generally homogenized, i.e. taken up in a solvent. One example of a solvent entirely suitable for this purpose is N,N-dimethylformamide. […] Particularly suitable separating columns are capillary columns with 100% dimethylpolysiloxane (e.g. DB-1 from Agilent) or (14% cyanopropylphenyl)methylpolysiloxane (e.g. DB-1701 from Agilent), preferably each of length 60 m, internal diameter 0.32 mm and film thickness 1 μm.
# The syringe attachment filter used is a membrane filter of pore width 0.2 micrometer. […] Its concentration is determined analogously to the analysis method described in the determination of c(FA, desorption column outlet). […] When establishing the new, higher temperature, the temperature of the suspension must not overshoot the desired temperature by more than 3° C. When the desired temperature has been established, the mixture is then stirred at constant temperature at least for a duration of 4 hours. • (6) After this continued stirring time, another sample is taken, as described in point (4). In each sampling, generally a new syringe attachment filter is used.
# Examples of secondary components caused by the industrial process include water, maleic anhydride, maleic acid, acrylic acid, methacrylic acid, acetic acid, propionic acid, phthalic anhydride and phthalic acid. […] The continuous line corresponds to the fitted curve.
structure (smiles),measurement,setting,value
O=C(O)/C=C/C(=O)O [fumaric acid],saturation concentration of fumaric acid in the solution,"mixture of dibutyl phthalate and fumaric acid, 50° C.",250 ppm by weight
same,saturation concentration of fumaric acid in the solution,"solution from industrially operated maleic anhydride plant (dibutyl phthalate >98.5% by weight), 30° C.",250 ppm by weight
same,saturation concentration of fumaric acid in the solution,"solution from industrially operated maleic anhydride plant (dibutyl phthalate >98.5% by weight), 50° C.",400 ppm by weight
